Experimental data taken from patent US12473304B2, “Heterocyclic PAD4 inhibitors” (BRISTOL-MYERS SQUIBB COMPANY, priority 2020, dated 2025).

Biological target: human PAD4 (hPAD4) (Homo sapiens (Human), UniProt Q9UM07)
Assay: RFMS Human PAD4 Functional Assay 1
Format: biochemical
Settings: RFMS assay 1; 5 nM hPAD4, 250 μM BAEE substrate, 50 μM calcium, 37° C.
Outline: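 Recombinant hPAD4 (5 nM) was preincubated with compound (top 50 μM, 0.5% DMSO) for 30 min at 37 °C, then reacted with 250 μM BAEE for 90 min at 37 °C in pH 7.5 HEPES buffer with 50 μM calcium and 5 μM TPEN. Product was derivatized with phenyl glyoxal and quantified by RapidFire MS.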

human PAD4 (hPAD4), sequence (Q9UM07 whole entry): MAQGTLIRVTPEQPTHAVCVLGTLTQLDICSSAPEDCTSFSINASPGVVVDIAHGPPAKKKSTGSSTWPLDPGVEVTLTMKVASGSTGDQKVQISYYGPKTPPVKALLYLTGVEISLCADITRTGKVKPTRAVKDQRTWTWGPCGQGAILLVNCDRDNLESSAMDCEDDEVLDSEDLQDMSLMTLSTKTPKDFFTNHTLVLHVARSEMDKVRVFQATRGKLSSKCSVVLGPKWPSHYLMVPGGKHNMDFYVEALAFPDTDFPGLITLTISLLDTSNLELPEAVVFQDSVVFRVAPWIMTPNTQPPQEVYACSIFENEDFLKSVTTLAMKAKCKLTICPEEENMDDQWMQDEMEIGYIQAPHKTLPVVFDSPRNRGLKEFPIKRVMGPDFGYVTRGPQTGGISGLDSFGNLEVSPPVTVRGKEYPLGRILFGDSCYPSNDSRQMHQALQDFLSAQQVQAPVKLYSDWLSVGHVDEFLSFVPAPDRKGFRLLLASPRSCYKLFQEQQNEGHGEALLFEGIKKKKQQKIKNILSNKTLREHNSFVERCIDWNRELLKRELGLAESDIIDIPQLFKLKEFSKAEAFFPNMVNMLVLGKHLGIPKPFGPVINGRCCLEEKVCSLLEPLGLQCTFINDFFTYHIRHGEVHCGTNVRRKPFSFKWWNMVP

Cc1c(-c2cc3cccnc3n2CC2CC2)nn2cc(C(=O)N3C[C@H](N)C[C@@H](F)C3)cc(F)c12 [Example 52, ((3R,5R)-3-Amino-5-fluoropiperidin-1-yl)(2-(1-(cyclopropylmethyl)-1H-pyrrolo[2,3-b]pyridin-2-yl)-4-fluoro-3-methylpyrazolo[1,5-a]pyridin-6-yl)methanone]
IC50: 882 nM

Cc1c(-c2cc3ccc(Cl)nc3n2CC2CC2)nn2cc(C(=O)N3C[C@H](N)C[C@@H](F)C3)cc(F)c12 [Example 53, ((3R,5R)-3-Amino-5-fluoropiperidin-1-yl)(2-(6-chloro-1-(cyclopropylmethyl)-1H-pyrrolo[2,3-b]pyridin-2-yl)-4-fluoro-3-methylpyrazolo[1,5-a]pyridin-6-yl)methanone]
IC50: 446 nM

Cc1ccc2cc(-c3nn4cc(C(=O)N5C[C@H](N)C[C@@H](F)C5)cc(F)c4c3C)n(CC3CC3)c2n1 [Example 54, ((3R,5R)-3-Amino-5-fluoropiperidin-1-yl)(2-(1-(cyclopropylmethyl)-6-methyl-1H-pyrrolo[2,3-b]pyridin-2-yl)-4-fluoro-3-methylpyrazolo[1,5-a]pyridin-6-yl)methanone]
IC50: 358 nM

Cc1c(-c2cc3ccc(-c4cccc(O)c4F)nc3n2CC2CC2)nn2cc(C(=O)N3C[C@H](N)C[C@@H](F)C3)cc(F)c12 [Example 55, ((3R,5R)-3-Amino-5-fluoropiperidin-1-yl)(2-(1-(cyclopropylmethyl)-6-(2-fluoro-3-hydroxyphenyl)-1H-pyrrolo[2,3-b]pyridin-2-yl)-4-fluoro-3-methylpyrazolo[1,5-a]pyridin-6-yl)methanone]
IC50: 543 nM

Cc1c(-c2cc3ccc(-c4ccc(C(N)=O)c(F)c4)nc3n2CC2CC2)nn2cc(C(=O)N3C[C@H](N)C[C@@H](F)C3)cc(F)c12 [Example 56, 4-(2-(6-((3R,5R)-3-Amino-5-fluoropiperidine-1-carbonyl)-4-fluoro-3-methylpyrazolo[1,5-a]pyridin-2-yl)-1-(cyclopropylmethyl)-1H-pyrrolo[2,3-b]pyridin-6-yl)-2-fluorobenzamide]
IC50: 468 nM

Cc1c(-c2cc3ccc(C4CC4)nc3n2CC2CC2)nn2cc(C(=O)N3C[C@H](N)C[C@@H](F)C3)cc(F)c12 [Example 57, ((3R,5R)-3-Amino-5-fluoropiperidin-1-yl)(2-(6-cyclopropyl-1-(cyclopropylmethyl)-1H-pyrrolo[2,3-b]pyridin-2-yl)-4-fluoro-3-methylpyrazolo[1,5-a]pyridin-6-yl)methanone]
IC50: 781 nM

Cc1c(-c2cc3ccc(-c4ccc(Cl)c5c(NS(C)(=O)=O)nn(C)c45)cc3n2CC2CC2)nn2cc(C(=O)N3CC4CCC3[C@@H]4N)cc(F)c12 (stereo partly drawn) [Example 58, N-(7-(2-(6-((7R)-7-Amino-2-azabicyclo[2.2.1]heptane-2-carbonyl)-4-fluoro-3-methylpyrazolo[1,5-a]pyridin-2-yl)-1-(cyclopropylmethyl)-1H-indol-6-yl)-4-chloro-1-methyl-1H-indazol-3-yl)methanesulfonamide]
IC50: 83 nM

Cc1c(-c2cc3ccc(-c4cccc(O)c4F)cc3n2CC2CC2)nn2cc(C(=O)N3CC4CCC3[C@@H]4N)cc(F)c12 (stereo partly drawn) [Example 59, ((7R)-7-Amino-2-azabicyclo[2.2.1]heptan-2-yl)(2-(1-(cyclopropylmethyl)-6-(2-fluoro-3-hydroxyphenyl)-1H-indol-2-yl)-4-fluoro-3-methylpyrazolo[1,5-a]pyridin-6-yl)methanone]
IC50: 291 nM

Cc1c(-c2cc3ccc(-c4ccc(O)c(F)c4)cc3n2CC2CC2)nn2cc(C(=O)N3CC4CCC3[C@@H]4N)cc(F)c12 (stereo partly drawn) [Example 60, ((7R)-7-Amino-2-azabicyclo[2.2.1]heptan-2-yl)(2-(1-(cyclopropylmethyl)-6-(3-fluoro-4-hydroxyphenyl)-1H-indol-2-yl)-4-fluoro-3-methylpyrazolo[1,5-a]pyridin-6-yl)methanone]
IC50: 83 nM

Cc1c(-c2cc3ccc(-c4ccn5c(C)nnc5c4)cc3n2CC2CC2)nn2cc(C(=O)N3CC4CCC3[C@@H]4N)cc(F)c12 (stereo partly drawn) [Example 62, ((7R)-7-Amino-2-azabicyclo[2.2.1]heptan-2-yl)(2-(1-(cyclopropylmethyl)-6-(3-methyl-[1,2,4]triazolo[4,3-a]pyridin-7-yl)-1H-indol-2-yl)-4-fluoro-3-methylpyrazolo[1,5-a]pyridin-6-yl)methanone]
IC50: 28 nM

Cc1c(-c2cc3cccnc3n2CC2CC2)nn2cc(C(=O)N3CC4CCC3[C@@H]4N)ccc12 (stereo partly drawn) [Example 63, ((7R)-7-Amino-2-azabicyclo[2.2.1]heptan-2-yl)(2-(1-(cyclopropylmethyl)-1H-pyrrolo[2,3-b]pyridin-2-yl)-3-methylpyrazolo[1,5-a]pyridin-6-yl)methanone]
IC50: 227 nM

Cc1c(-c2cc3ccc(-c4ccc5c(c4)C(=O)NC5)nc3n2CC2CC2)nn2cc(C(=O)N3CC4CCC3[C@@H]4N)ccc12 (stereo partly drawn) [Example 65, 6-(2-(6-((7R)-7-Amino-2-azabicyclo[2.2.1]heptane-2-carbonyl)-3-methylpyrazolo[1,5-a]pyridin-2-yl)-1-(cyclopropylmethyl)-1H-pyrrolo[2,3-b]pyridin-6-yl)isoindolin-1-one]
IC50: 25 nM

Cc1ccc2cc(-c3nn4cc(C(=O)N5CC6CCC5[C@@H]6N)ccc4c3C)n(CC3CC3)c2n1 (stereo partly drawn) [Example 66, ((7R)-7-Amino-2-azabicyclo[2.2.1]heptan-2-yl)(2-(1-(cyclopropylmethyl)-6-methyl-1H-pyrrolo[2,3-b]pyridin-2-yl)-3-methylpyrazolo[1,5-a]pyridin-6-yl)methanone]
IC50: 59 nM

Cc1c(-c2cc3ccc(-c4ccc(O)c(F)c4)nc3n2CC2CC2)nn2cc(C(=O)N3CC4CCC3[C@@H]4N)ccc12 (stereo partly drawn) [Example 67, ((7R)-7-Amino-2-azabicyclo[2.2.1]heptan-2-yl)(2-(1-(cyclopropylmethyl)-6-(3-fluoro-4-hydroxyphenyl)-1H-pyrrolo[2,3-b]pyridin-2-yl)-3-methylpyrazolo[1,5-a]pyridin-6-yl)methanone]
IC50: 23 nM

Cc1c(-c2cc3ccc(-c4cccc(O)c4F)nc3n2CC2CC2)nn2cc(C(=O)N3CC4CCC3[C@@H]4N)ccc12 (stereo partly drawn) [Example 68, ((7R)-7-Amino-2-azabicyclo[2.2.1]heptan-2-yl)(2-(1-(cyclopropylmethyl)-6-(2-fluoro-3-hydroxyphenyl)-1H-pyrrolo[2,3-b]pyridin-2-yl)-3-methylpyrazolo[1,5-a]pyridin-6-yl)methanone]
IC50: 26 nM

Cc1c(-c2cc3ccc(-c4ccc(C(N)=O)c(F)c4)nc3n2CC2CC2)nn2cc(C(=O)N3CC4CCC3[C@@H]4N)ccc12 (stereo partly drawn) [Example 69, 4-(2-(6-((7R)-7-Amino-2-azabicyclo[2.2.1]heptane-2-carbonyl)-3-methylpyrazolo[1,5-a]pyridin-2-yl)-1-(cyclopropylmethyl)-1H-pyrrolo[2,3-b]pyridin-6-yl)-2-fluorobenzamide]
IC50: 19 nM

Cc1c(-c2cc3ccc(-c4ccn5c(C)nnc5c4)nc3n2CC2CC2)nn2cc(C(=O)N3CC4CCC3[C@@H]4N)ccc12 (stereo partly drawn) [Example 70, ((7R)-7-Amino-2-azabicyclo[2.2.1]heptan-2-yl)(2-(1-(cyclopropylmethyl)-6-(3-methyl-[1,2,4]triazolo[4,3-a]pyridin-7-yl)-1H-pyrrolo[2,3-b]pyridin-2-yl)-3-methylpyrazolo[1,5-a]pyridin-6-yl)methanone]
IC50: 15 nM

Cc1c(-c2cc3ccc(C4CC4)nc3n2CC2CC2)nn2cc(C(=O)N3CC4CCC3[C@@H]4N)ccc12 (stereo partly drawn) [Example 71, ((7R)-7-Amino-2-azabicyclo[2.2.1]heptan-2-yl)(2-(6-cyclopropyl-1-(cyclopropylmethyl)-1H-pyrrolo[2,3-b]pyridin-2-yl)-3-methylpyrazolo[1,5-a]pyridin-6-yl)methanone]
IC50: 22 nM

COc1cc(-c2ccc3cc(-c4nn5cc(C(=O)N6CC7CCC6[C@@H]7N)ccc5c4C)n(CC4CC4)c3n2)c(F)cn1 (stereo partly drawn) [Example 72, ((7R)-7-Amino-2-azabicyclo[2.2.1]heptan-2-yl)(2-(1-(cyclopropylmethyl)-6-(5-fluoro-2-methoxypyridin-4-yl)-1H-pyrrolo[2,3-b]pyridin-2-yl)-3-methylpyrazolo[1,5-a]pyridin-6-yl)methanone]
IC50: 67 nM

Cc1c(-c2cc3ccc(-c4ccc(OC(F)F)c(F)c4)nc3n2CC2CC2)nn2cc(C(=O)N3CC4CCC3[C@@H]4N)ccc12 (stereo partly drawn) [Example 73, ((7R)-7-Amino-2-azabicyclo[2.2.1]heptan-2-yl)(2-(1-(cyclopropylmethyl)-6-(4-(difluoromethoxy)-3-fluorophenyl)-1H-pyrrolo[2,3-b]pyridin-2-yl)-3-methylpyrazolo[1,5-a]pyridin-6-yl)methanone]
IC50: 605 nM

Cc1c(-c2cc3ccc(-c4cc(F)c(O)c(F)c4)nc3n2CC2CC2)nn2cc(C(=O)N3CC4CCC3[C@@H]4N)ccc12 (stereo partly drawn) [Example 74, ((7R)-7-Amino-2-azabicyclo[2.2.1]heptan-2-yl)(2-(1-(cyclopropylmethyl)-6-(3,5-difluoro-4-hydroxyphenyl)-1H-pyrrolo[2,3-b]pyridin-2-yl)-3-methylpyrazolo[1,5-a]pyridin-6-yl)methanone]
IC50: 425 nM

Cc1c(-c2cc3ccc(-c4ccc(F)c(O)c4)nc3n2CC2CC2)nn2cc(C(=O)N3CC4CCC3[C@@H]4N)ccc12 (stereo partly drawn) [Example 75, ((7R)-7-Amino-2-azabicyclo[2.2.1]heptan-2-yl)(2-(1-(cyclopropylmethyl)-6-(4-fluoro-3-hydroxyphenyl)-1H-pyrrolo[2,3-b]pyridin-2-yl)-3-methylpyrazolo[1,5-a]pyridin-6-yl)methanone]
IC50: 166 nM

COC1CCN(c2ccc3cc(-c4nn5cc(C(=O)N6CC7CCC6[C@@H]7N)ccc5c4C)n(CC4CC4)c3n2)CC1 (stereo partly drawn) [Example 76, ((7R)-7-Amino-2-azabicyclo[2.2.1]heptan-2-yl)(2-(1-(cyclopropylmethyl)-6-(4-methoxypiperidin-1-yl)-1H-pyrrolo[2,3-b]pyridin-2-yl)-3-methylpyrazolo[1,5-a]pyridin-6-yl)methanone]
IC50: 96 nM
